Assay results from patent publication US12643883B2, “Solid state forms of a kinase inhibitor” (Deciphera Pharmaceuticals, LLC, priority 2023, dated 2026).
Values belong to the compound of their own block, whether it stands above or below them.

How the values were obtained:
Assay type in all cases: physicochemical
[1] = Static storage stability of crystalline dihydrate and anhydrous forms (XRPD, DSC, KF once weekly for four weeks)
Procedure: The stability of crystalline dihydrate and anhydrous forms of the compound represented by Formula (I) at varying relative humidity (RH) and temperature was investigated.
For example, the stability of crystalline dihydrate and anhydrous forms of the compound represented by Formula (I), as prepared according to Example 1 and Example 2, respectively, was studied under other conditions by placing aliquots of each form in static storage at conditions of 40° C./75% RH, 25° C./97% RH, 40° C./0% RH and 25° C./0% RH and analyzing the aliquots once weekly for four weeks using XRPD, DSC, and KF.

[2] = Hydration experiment, slurry of crystalline anhydrous form in deionized water; details: successive 4-hour heat-cool cycles between 40° C. and room temperature for 72 hours
Procedure: In a hydration experiment, a slurry of the crystalline anhydrous form of the compound represented by Formula (I) and deionized water was subjected to successive 4-hour heat-cool cycles between 40° C. and room temperature for 72 hours.

[3] = Hydration of the crystalline anhydrous form in low water activity solvents; details: water activity 0.1, Ambient, XRPD
Procedure: The hydration of the crystalline anhydrous form was studied using aqueous solvent systems with low water activity of 0.1. Slurries of the crystalline anhydrous form in the respective solvent were agitated for 6 days at room temperature. Aliquots of isolated materials were analyzed after 24, 48, and 144 hours of agitation. Table 12 summarizes the experiment conditions and isolated crystalline forms, as determined by XRPD.

[4] = static storage 25° C./0% RH, Week 4, listed as crystalline dihydrate form (having average crystal sizes of about 1 mm), dihydrate
[5] = static storage 40° C./0% RH, Week 1, dihydrate
[6] = static storage 40° C./0% RH, Week 4, listed as crystalline dihydrate form (having average crystal sizes of about 1 mm), dihydrate
[7] = static storage 25° C./0% RH, Week 1
[8] = static storage 25° C./0% RH, Week 2
[9] = static storage 25° C./0% RH, Week 3
[10] = static storage 25° C./0% RH, Week 4
[11] = static storage 25° C./97% RH, Week 1
[12] = static storage 25° C./97% RH, Week 2
[13] = static storage 25° C./97% RH, Week 3
[14] = static storage 25° C./97% RH, Week 4
[15] = static storage 40° C./0% RH, Week 1
[16] = static storage 40° C./0% RH, Week 2
[17] = static storage 40° C./0% RH, Week 3
[18] = static storage 40° C./0% RH, Week 4
[19] = static storage 40° C./75% RH, Week 1
[20] = static storage 40° C./75% RH, Week 2
[21] = static storage 40° C./75% RH, Week 3
[22] = static storage 40° C./75% RH, Week 4

XRPD ([1]; static storage 25° C./0% RH, Week 1, dihydrate): Dihydrate
KF (%) ([1]; static storage 25° C./0% RH, Week 1, dihydrate, dihydrate crystals about 10-50 µm): 7.5%
XRPD ([1]; static storage 25° C./0% RH, Week 2, dihydrate): Dihydrate
KF (%) ([1]; static storage 25° C./0% RH, Week 2, dihydrate, dihydrate crystals about 10-50 µm): 7.7%
XRPD ([1]; static storage 25° C./0% RH, Week 3, dihydrate): Dihydrate
KF (%) ([1]; static storage 25° C./0% RH, Week 3, dihydrate, dihydrate crystals about 10-50 µm): 8.1%
XRPD ([1]; static storage 25° C./0% RH, Week 4, dihydrate): Dihydrate
KF (%) ([1]; static storage 25° C./0% RH, Week 4, dihydrate, dihydrate crystals about 10-50 µm): 7.9%
KF (%) [1, 4]: 5.8%
XRPD ([1]; static storage 25° C./97% RH, Week 1, dihydrate): Dihydrate
KF (%) ([1]; static storage 25° C./97% RH, Week 1, dihydrate, dihydrate crystals about 10-50 µm): 7.6%
XRPD ([1]; static storage 25° C./97% RH, Week 2, dihydrate): Dihydrate
KF (%) ([1]; static storage 25° C./97% RH, Week 2, dihydrate, dihydrate crystals about 10-50 µm): 7.5%
XRPD ([1]; static storage 25° C./97% RH, Week 3, dihydrate): Dihydrate
KF (%) ([1]; static storage 25° C./97% RH, Week 3, dihydrate, dihydrate crystals about 10-50 µm): 7.9%
XRPD ([1]; static storage 25° C./97% RH, Week 4, dihydrate): Dihydrate
KF (%) ([1]; static storage 25° C./97% RH, Week 4, dihydrate, dihydrate crystals about 10-50 µm): 7.9%
XRPD ([1]; static storage 25° C./97% RH, Week 4, listed as crystalline dihydrate form (having average crystal sizes of about 1 mm), dihydrate): remained stable and unchanged
XRPD [1, 5]: Pattern 4
KF (%) ([1]; static storage 40° C./0% RH, Week 1, dihydrate, dihydrate crystals about 10-50 µm): 7.5%
XRPD ([1]; static storage 40° C./0% RH, Week 1, listed as crystalline dihydrate form (having crystal sizes in the range of about 10-50 μm , dihydrate)): Pattern 4
XRPD ([1]; static storage 40° C./0% RH, Week 2, dihydrate): Pattern 4
KF (%) ([1]; static storage 40° C./0% RH, Week 2, dihydrate, dihydrate crystals about 10-50 µm): 7.4%
XRPD ([1]; static storage 40° C./0% RH, Week 2, listed as crystalline dihydrate form (having crystal sizes in the range of about 10-50 μm , dihydrate)): Pattern 4
XRPD ([1]; static storage 40° C./0% RH, Week 3, dihydrate): Anhydrous
KF (%) ([1]; static storage 40° C./0% RH, Week 3, dihydrate, dihydrate crystals about 10-50 µm): 7.0%
XRPD ([1]; static storage 40° C./0% RH, Week 3, listed as crystalline dihydrate form (having crystal sizes in the range of about 10-50 μm , dihydrate)): Pattern 4 and peaks at 9.9° and 10.6°
KF (%) ([1]; static storage 40° C./0% RH, Week 4, dihydrate, dihydrate crystals about 10-50 µm): 3.4%
KF (%) [1, 6]: 0.2%
XRPD ([1]; static storage 40° C./0% RH, Week 4, listed as crystalline dihydrate form (having crystal sizes in the range of about 10-50 μm , dihydrate)): Pattern 4 and peaks at 9.9° and 10.6°
XRPD ([1]; static storage 40° C./75% RH, Week 1, dihydrate): Dihydrate
KF (%) ([1]; static storage 40° C./75% RH, Week 1, dihydrate, dihydrate crystals about 10-50 µm): 7.5%
XRPD ([1]; static storage 40° C./75% RH, Week 2, dihydrate): Dihydrate
KF (%) ([1]; static storage 40° C./75% RH, Week 2, dihydrate, dihydrate crystals about 10-50 µm): 7.9%
XRPD ([1]; static storage 40° C./75% RH, Week 3, dihydrate): Dihydrate
KF (%) ([1]; static storage 40° C./75% RH, Week 3, dihydrate, dihydrate crystals about 10-50 µm): 8.0%
XRPD ([1]; static storage 40° C./75% RH, Week 4, dihydrate): Dihydrate
KF (%) ([1]; static storage 40° C./75% RH, Week 4, dihydrate, dihydrate crystals about 10-50 µm): 7.9%
XRPD ([1]; static storage 40° C./75% RH, Week 4, listed as crystalline dihydrate form (having average crystal sizes of about 1 mm), dihydrate): remained stable and unchanged
Structure (SMILES): Cc1nc(-c2cnc(NC(C)C)n(C)c2=O)ccc1Oc1ccnc(-c2cnn(C)c2)c1 [Dihydrate form of the compound represented by Formula (I) (h] [2-(isopropylamino)-3-methyl-5-(6-methyl-5-((2-(1-methyl-1H-pyrazol-4-yl)pyridin-4-yl)oxy)pyridin-2-yl)pyrimidin-4 (3H)-one dihydrate]
XRPD [1, 4]: partially converted to the crystalline anhydrous form
XRPD [1, 6]: partially converted to the crystalline anhydrous form

stability under all storage conditions ([1]; 40° C./75% RH, 25° C./97% RH, 40° C./0% RH and 25° C./0% RH, after 4 weeks): remained stable
KF (%) [1, 7]: 0.1%
XRPD [1, 7]: Anhydrous
KF (%) [1, 8]: 0.1%
XRPD [1, 8]: Anhydrous
KF (%) [1, 9]: 0.0%
XRPD [1, 9]: Anhydrous
KF (%) [1, 10]: 0.2%
XRPD [1, 10]: Anhydrous
KF (%) [1, 11]: 0.3%
XRPD [1, 11]: Anhydrous
KF (%) [1, 12]: 0.3%
XRPD [1, 12]: Anhydrous
KF (%) [1, 13]: 0.2%
XRPD [1, 13]: Anhydrous
KF (%) [1, 14]: 0.4%
XRPD [1, 14]: Anhydrous
KF (%) [1, 15]: 0.1%
XRPD [1, 15]: Anhydrous
KF (%) [1, 16]: 0.0%
XRPD [1, 16]: Anhydrous
KF (%) [1, 17]: 0.0%
XRPD [1, 17]: Anhydrous
KF (%) [1, 18]: 0.2%
XRPD [1, 18]: Anhydrous
KF (%) [1, 19]: 0.3%
XRPD [1, 19]: Anhydrous
KF (%) [1, 20]: 0.2%
XRPD [1, 20]: Anhydrous
KF (%) [1, 21]: 0.1%
XRPD [1, 21]: Anhydrous
KF (%) [1, 22]: 0.3%
XRPD [1, 22]: Anhydrous
isolated solid identified by XRPD [2]: crystalline dihydrate form
Observed Forms 24 h ([3]; slurry in Acetone/water (99:1)): Anhydrous
Observed Forms 144 h ([3]; slurry in Acetone/water (99:1)): Anhydrous
Observed Forms 24 h ([3]; slurry in MEK/water (99:1)): Anhydrous
Observed Forms 144 h ([3]; slurry in MEK/water (99:1)): Dihydrate
Structure (SMILES): Cc1nc(-c2cnc(NC(C)C)n(C)c2=O)ccc1Oc1ccnc(-c2cnn(C)c2)c1 [2-(isopropylamino)-3-methyl-5-(6-methyl-5-((2-(1-methyl-1H-pyrazol-4-yl)pyridin-4-yl)oxy)pyridin-2-yl)pyrimidin-4 (3H)-one]

Structure (SMILES): Cc1nc(-c2cnc(NC(C)C)n(C)c2=O)ccc1Oc1ccnc(-c2cnn(C)c2)c1 [ground crystalline dihydrate form, 2-(isopropylamino)-3-methyl-5-(6-methyl-5-((2-(1-methyl-1H-pyrazol-4-yl)pyridin-4-yl)oxy)pyridin-2-yl)pyrimidin-4 (3H)-one dihydrate]
XRPD [1, 5]: Pattern 4 and the crystalline anhydrous form
